Source: ChEMBL document CHEMBL1201862, “PubChem BioAssay data set” (2004)
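A five-concentration, 48-hour dose response in 96-well plates underlies each endpoint, interpolated linearly between surrounding concentrations. At the GI50, growth is halved.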 Activity calls are given as the source filed them. Rule as the data show it: active = GI50 up to about 1.1 µM and inactive = higher.

Legend:
Assay in all cases: DTP human tumour cell line panel, 48 h
SNB-19 = tested on: SNB-19
NCI-H522 = tested on: NCI-H522
CCRF-CEM = tested on: CCRF-CEM
IGROV-1 = tested on: IGROV-1
MDA-MB-435 = tested on: MDA-MB-435
Malme-3M = tested on: Malme-3M
NCI-H226 = tested on: NCI-H226
786-0 = tested on: 786-0
HT-29 = tested on: HT-29
SK-MEL-5 = tested on: SK-MEL-5
UACC-62 = tested on: UACC-62
HCT-116 = tested on: HCT-116
MDA-N = tested on: MDA-N
OVCAR-3 = tested on: OVCAR-3
MDA-MB-231 = tested on: MDA-MB-231
T47D = tested on: T47D
SN12C = tested on: SN12C
PC-3 = tested on: PC-3
NCI/ADR-RES = tested on: NCI/ADR-RES
COLO 205 = tested on: COLO 205
M14 = tested on: M14
BT-549 = tested on: BT-549
K562 = tested on: K562
OVCAR-8 = tested on: OVCAR-8
HCT-15 = tested on: HCT-15
RPMI-8226 = tested on: RPMI-8226
U-251 = tested on: U-251
SK-OV-3 = tested on: SK-OV-3
SF-295 = tested on: SF-295
SNB-75 = tested on: SNB-75
HOP-92 = tested on: HOP-92
OVCAR-4 = tested on: OVCAR-4
UO-31 = tested on: UO-31
MOLT-4 = tested on: MOLT-4
SK-MEL-2 = tested on: SK-MEL-2
NCI-H23 = tested on: NCI-H23
SK-MEL-28 = tested on: SK-MEL-28
CAKI-1 = tested on: CAKI-1
Hs-578T = tested on: Hs-578T
HOP-62 = tested on: HOP-62
SF-539 = tested on: SF-539
SW-620 = tested on: SW-620
EKVX = tested on: EKVX
A549 = tested on: A549
HL-60 = tested on: HL-60
RXF 393 = tested on: RXF 393
OVCAR-5 = tested on: OVCAR-5
SR = tested on: SR
KM12 = tested on: KM12
ACHN = tested on: ACHN
LOX IMVI = tested on: LOX IMVI
MCF7 = tested on: MCF7
DU-145 = tested on: DU-145
SF-268 = tested on: SF-268
TK-10 = tested on: TK-10
HCC 2998 = tested on: HCC 2998
UACC-257 = tested on: UACC-257
NCI-H460 = tested on: NCI-H460

For NC(=O)C(c1ccccc1)N1OC2C(=O)N(c3ccccc3)C(=O)C2C1c1c2ccccc2c(Cl)c2ccccc12 (stereo not given), the GI50 (SNB-19) was > 100 µM (inactive), the GI50 (NCI-H522) was > 100 µM (inactive) and the GI50 (CCRF-CEM) was 61.4 µM (inactive). The GI50 (IGROV-1) was > 100 µM (inactive), the GI50 (MDA-MB-435) was > 100 µM (inactive) and the GI50 (Malme-3M) was > 100 µM (inactive). For the same compound, the GI50 (NCI-H226) was > 100 µM (inactive), the GI50 (786-0) was > 100 µM (inactive) and the GI50 (HT-29) was > 100 µM (inactive). For the same compound, the GI50 (SK-MEL-5) was > 100 µM (inactive), the GI50 (UACC-62) was > 100 µM (inactive) and the GI50 (HCT-116) was > 100 µM (inactive). The GI50 (MDA-N) was > 100 µM (inactive), the GI50 (OVCAR-3) was > 100 µM (inactive) and the GI50 (MDA-MB-231) was > 100 µM (inactive). The GI50 (T47D) was > 100 µM (inactive), the GI50 (SN12C) was > 100 µM (inactive) and the GI50 (PC-3) was > 100 µM (inactive). For the same compound, the GI50 (NCI/ADR-RES) was > 100 µM (inactive), the GI50 (COLO 205) was > 100 µM (inactive) and the GI50 (M14) was > 100 µM (inactive). The GI50 (BT-549) was > 100 µM (inactive), the GI50 (K562) was > 100 µM (inactive) and the GI50 (OVCAR-8) was > 100 µM (inactive). For the same compound, the GI50 (HCT-15) was over 100 µM, the GI50 (RPMI-8226) was > 100 µM (inactive) and the GI50 (U-251) was > 100 µM (inactive). The GI50 (SK-OV-3) was > 100 µM (inactive), the GI50 (SF-295) was > 100 µM (inactive) and the GI50 (SNB-75) was > 100 µM (inactive). For the same compound, the GI50 (HOP-92) was > 100 µM (inactive), the GI50 (OVCAR-4) was > 100 µM (inactive) and the GI50 (UO-31) was > 100 µM (inactive). The GI50 (MOLT-4) was > 100 µM (inactive), the GI50 (SK-MEL-2) was > 100 µM (inactive) and the GI50 (NCI-H23) was > 100 µM (inactive). The GI50 (SK-MEL-28) was > 100 µM (inactive), the GI50 (CAKI-1) was > 100 µM (inactive) and the GI50 (Hs-578T) was > 100 µM (inactive). For the same compound, the GI50 (HOP-62) was > 100 µM (inactive), the GI50 (SF-539) was > 100 µM (inactive) and the GI50 (SW-620) was > 100 µM (inactive). For the same compound, the GI50 (EKVX) was > 100 µM (inactive), the GI50 (A549) was > 100 µM (inactive) and the GI50 (HL-60) was > 100 µM (inactive). The GI50 (RXF 393) was > 100 µM (inactive), the GI50 (OVCAR-5) was > 100 µM (inactive) and the GI50 (SR) was > 100 µM (inactive). For the same compound, the GI50 (KM12) was > 100 µM (inactive), the GI50 (ACHN) was > 100 µM (inactive) and the GI50 (LOX IMVI) was > 100 µM (inactive). For the same compound, the GI50 (MCF7) was > 100 µM (inactive), the GI50 (DU-145) was > 100 µM (inactive) and the GI50 (SF-268) was > 100 µM (inactive).

For N#Cc1nc(COCc2ccccc2)oc1N, the GI50 (SNB-19) was > 100 µM (inactive), the GI50 (NCI-H522) was 2.97 µM (inactive) and the GI50 (CCRF-CEM) was 17.9 µM (inactive). For the same compound, the GI50 (IGROV-1) was > 100 µM (inactive), the GI50 (MDA-MB-435) was > 100 µM (inactive) and the GI50 (Malme-3M) was 28.7 µM (inactive). The GI50 (NCI-H226) was > 100 µM (inactive), the GI50 (786-0) was > 100 µM (inactive) and the GI50 (HT-29) was > 100 µM (inactive). The GI50 (UACC-62) was > 100 µM (inactive), the GI50 (HCT-116) was > 100 µM (inactive) and the GI50 (MDA-N) was > 100 µM (inactive). For the same compound, the GI50 (OVCAR-3) was > 100 µM (inactive), the GI50 (MDA-MB-231) was > 100 µM (inactive) and the GI50 (T47D) was > 100 µM (inactive). The GI50 (SN12C) was > 100 µM (inactive), the GI50 (PC-3) was > 100 µM (inactive) and the GI50 (NCI/ADR-RES) was > 100 µM (inactive). For the same compound, the GI50 (COLO 205) was > 100 µM (inactive), the GI50 (M14) was > 100 µM (inactive) and the GI50 (BT-549) was 29.6 µM (inactive). The GI50 (K562) was 49.7 µM (inactive), the GI50 (OVCAR-8) was > 100 µM (inactive) and the GI50 (HCT-15) was 51.1 µM. For the same compound, the GI50 (TK-10) was > 100 µM (inactive), the GI50 (RPMI-8226) was 74.8 µM (inactive) and the GI50 (U-251) was > 100 µM (inactive). The GI50 (SK-OV-3) was > 100 µM (inactive), the GI50 (SF-295) was > 100 µM (inactive) and the GI50 (SNB-75) was > 100 µM (inactive). The GI50 (HOP-92) was > 100 µM (inactive), the GI50 (OVCAR-4) was > 100 µM (inactive) and the GI50 (UO-31) was > 100 µM (inactive). For the same compound, the GI50 (MOLT-4) was > 100 µM (inactive), the GI50 (SK-MEL-2) was > 100 µM (inactive) and the GI50 (NCI-H23) was > 100 µM (inactive). The GI50 (SK-MEL-28) was > 100 µM (inactive), the GI50 (CAKI-1) was > 100 µM (inactive) and the GI50 (Hs-578T) was > 100 µM (inactive). For the same compound, the GI50 (HCC 2998) was > 100 µM (inactive), the GI50 (HOP-62) was > 100 µM (inactive) and the GI50 (SF-539) was > 100 µM (inactive). The GI50 (SW-620) was > 100 µM (inactive), the GI50 (UACC-257) was > 100 µM (inactive) and the GI50 (EKVX) was > 100 µM (inactive). The GI50 (A549) was > 100 µM (inactive), the GI50 (RXF 393) was > 100 µM (inactive) and the GI50 (OVCAR-5) was > 100 µM (inactive). For the same compound, the GI50 (SR) was > 100 µM (inactive), the GI50 (KM12) was 58.6 µM (inactive) and the GI50 (ACHN) was > 100 µM (inactive). For the same compound, the GI50 (LOX IMVI) was > 100 µM (inactive), the GI50 (MCF7) was > 100 µM (inactive) and the GI50 (DU-145) was > 100 µM (inactive). The GI50 (SF-268) was > 100 µM (inactive).

With C=C(C)CNC(=S)N(N)c1ccc(OC)cc1 the GI50 (SNB-19) was > 100 µM (inactive), the GI50 (NCI-H522) was 56.1 µM (inactive) and the GI50 (CCRF-CEM) was 94 µM (inactive). For the same compound, the GI50 (IGROV-1) was 58.6 µM (inactive), the GI50 (MDA-MB-435) was 54.8 µM (inactive) and the GI50 (Malme-3M) was > 100 µM (inactive). For the same compound, the GI50 (NCI-H226) was > 100 µM (inactive), the GI50 (786-0) was > 100 µM (inactive) and the GI50 (HT-29) was 74.8 µM (inactive). The GI50 (SK-MEL-5) was > 100 µM (inactive), the GI50 (UACC-62) was 24.2 µM (inactive) and the GI50 (HCT-116) was > 100 µM (inactive). The GI50 (MDA-N) was 99.3 µM (inactive), the GI50 (OVCAR-3) was > 100 µM (inactive) and the GI50 (MDA-MB-231) was > 100 µM (inactive). The GI50 (T47D) was > 100 µM (inactive), the GI50 (SN12C) was 66.8 µM (inactive) and the GI50 (PC-3) was > 100 µM (inactive). The GI50 (NCI/ADR-RES) was > 100 µM (inactive), the GI50 (COLO 205) was > 100 µM (inactive) and the GI50 (M14) was > 100 µM (inactive). The GI50 (BT-549) was > 100 µM (inactive), the GI50 (K562) was 39.6 µM (inactive) and the GI50 (OVCAR-8) was > 100 µM (inactive). The GI50 (HCT-15) was 21.8 µM, the GI50 (TK-10) was > 100 µM (inactive) and the GI50 (RPMI-8226) was > 100 µM (inactive). For the same compound, the GI50 (U-251) was > 100 µM (inactive), the GI50 (SK-OV-3) was > 100 µM (inactive) and the GI50 (SF-295) was > 100 µM (inactive). For the same compound, the GI50 (SNB-75) was 99.8 µM (inactive), the GI50 (HOP-92) was > 100 µM (inactive) and the GI50 (OVCAR-4) was > 100 µM (inactive). The GI50 (UO-31) was 52.6 µM (inactive), the GI50 (MOLT-4) was 96.6 µM (inactive) and the GI50 (NCI-H23) was > 100 µM (inactive). The GI50 (NCI-H460) was > 100 µM (inactive), the GI50 (SK-MEL-28) was > 100 µM (inactive) and the GI50 (Hs-578T) was > 100 µM (inactive). For the same compound, the GI50 (HCC 2998) was > 100 µM (inactive), the GI50 (HOP-62) was > 100 µM (inactive) and the GI50 (SF-539) was > 100 µM (inactive). For the same compound, the GI50 (SW-620) was > 100 µM (inactive), the GI50 (UACC-257) was > 100 µM (inactive) and the GI50 (EKVX) was 82.2 µM (inactive). For the same compound, the GI50 (A549) was > 100 µM (inactive), the GI50 (HL-60) was > 100 µM (inactive) and the GI50 (RXF 393) was > 100 µM (inactive). For the same compound, the GI50 (OVCAR-5) was > 100 µM (inactive), the GI50 (SR) was > 100 µM (inactive) and the GI50 (KM12) was 39.2 µM (inactive). For the same compound, the GI50 (ACHN) was 39.2 µM (inactive), the GI50 (LOX IMVI) was > 100 µM (inactive) and the GI50 (MCF7) was > 100 µM (inactive). The GI50 (DU-145) was > 100 µM (inactive) and the GI50 (SF-268) was 55.3 µM (inactive).
